Source: ChEMBL document CHEMBL3421607, “Design, synthesis and antibacterial activity of cinnamaldehyde derivatives as inhibitors of the bacterial cell division protein FtsZ” (Eur J Med Chem, 2015)
Values after ≈ are worked out from the molar mass of the structure shown.

Experiments:
Assay type in all cases: functional
[1] = tested on: Bacillus subtilis; experiment: microbe, parasite or virus in culture; details: ATCC 9372, 5 h
Description: Inhibition of cell division in penicillin-susceptible Bacillus subtilis ATCC 9372 assessed as filamentation after 5 hrs by phase contrast microscopy

[2] = tested on: Pseudomonas aeruginosa; experiment: microbe, parasite or virus in culture; details: ATCC 27853, 5 h
Description: Inhibition of cell division in penicillin-susceptible Pseudomonas aeruginosa ATCC 27853 assessed as filamentation after 5 hrs by phase contrast microscopy

[3] = tested on: Streptococcus pyogenes; experiment: Antibacterial activity against penicillin-susceptible Streptococcus pyogenes clinical isolates after 24 hrs by broth microdilution method
[4] = tested on: Bacillus subtilis; experiment: microbe, parasite or virus in culture; details: ATCC 9372, 24 h
Description: Antibacterial activity against penicillin-susceptible Bacillus subtilis ATCC 9372 after 24 hrs by broth microdilution method

[5] = tested on: Staphylococcus aureus; experiment: microbe, parasite or virus in culture; details: ATCC 25923, 5 h
Description: Inhibition of cell division in penicillin-susceptible Staphylococcus aureus ATCC 25923 assessed as ballooning after 5 hrs by phase contrast microscopy

[6] = tested on: Staphylococcus aureus; experiment: microbe, parasite or virus in culture; details: ATCC 29213, 24 h
Description: Antibacterial activity against methicillin-resistant Staphylococcus aureus ATCC 29213 after 24 hrs by broth microdilution method

[7] = tested on: Staphylococcus epidermidis; experiment: Antibacterial activity against penicillin-resistant Staphylococcus epidermidis clinical isolates after 24 hrs by broth microdilution method
[8] = tested on: Escherichia coli; experiment: microbe, parasite or virus in culture; details: ATCC 25922, 5 h
Description: Inhibition of cell division in penicillin-susceptible Escherichia coli ATCC 25922 assessed as filamentation after 5 hrs by phase contrast microscopy

[9] = tested on: Escherichia coli; experiment: microbe, parasite or virus in culture; details: ATCC 25922, 24 h
Description: Antibacterial activity against penicillin-susceptible Escherichia coli ATCC 25922 after 24 hrs by broth microdilution method

[10] = tested on: Staphylococcus aureus; experiment: Antibacterial activity against penicillin-resistant Staphylococcus aureus clinical isolates after 24 hrs by broth microdilution method
[11] = tested on: Staphylococcus aureus; experiment: microbe, parasite or virus in culture; details: ATCC 25923, 24 h
Description: Antibacterial activity against penicillin-susceptible Staphylococcus aureus ATCC 25923 after 24 hrs by broth microdilution method

[12] = tested on: Pseudomonas aeruginosa; experiment: microbe, parasite or virus in culture; details: ATCC 27853, 24 h
[13] = tested on: Streptococcus pyogenes; experiment: Antibacterial activity against penicillin-resistant Streptococcus pyogenes clinical isolates after 24 hrs by broth microdilution method

Row | SMILES | MIC [1] [µg/mL] | MIC [2] [µg/mL] | MIC [3] [µg/mL] | MIC [4] [µg/mL] | MIC [5] [µg/mL] | MIC [6] [µg/mL] | MIC [7] [µg/mL] | MIC [8] [µg/mL] | MIC [9] [µg/mL] | MIC [10] [µg/mL] | MIC [11] [µg/mL] | MIC [12] [µg/mL] | MIC [13] [µg/mL]
1 | COc1ccc(/C=C/C(=O)N(C)C)cc1OC | > 128 | > 128 | > 128 | 128 (≈ 544 µM) | 8 (≈ 34 µM) | > 128 | > 128 | 128 (≈ 544 µM) | 128 (≈ 544 µM) | 64 (≈ 272 µM) | 32 (≈ 136 µM) | 128 (≈ 544 µM) | 
2 | CC(C)NC(=O)/C=C/c1ccc(Cl)cc1Cl [3-(2,4-DICHLOROPHENYL)-N-ISOPROPYLACRYLAMIDE] | 32 (≈ 124 µM) | > 128 | 64 (≈ 248 µM) | > 128 | 32 (≈ 124 µM) | > 128 | > 128 | > 128 | 128 (≈ 496 µM) | > 128 | > 128 | 128 (≈ 496 µM) | > 128
3 | O=C(/C=C/c1ccc(Cl)cc1Cl)N1CCOCC1 | > 128 | > 128 | > 128 | > 128 | > 128 | > 128 | 64 (≈ 224 µM) | > 128 | 128 (≈ 447 µM) | > 128 | > 128 | 128 (≈ 447 µM) | 128 (≈ 447 µM)
4 | COc1ccc(/C=C/C(=O)Nc2cccnc2)cc1 | > 128 | 128 (≈ 503 µM) | > 128 | 128 (≈ 503 µM) | 4 (≈ 15.7 µM) | > 128 | 128 (≈ 503 µM) | 128 (≈ 503 µM) | 128 (≈ 503 µM) | 64 (≈ 252 µM) | 32 (≈ 126 µM) | 128 (≈ 503 µM) | 128 (≈ 503 µM)
5 | C#CCNC(=O)/C=C/c1ccc([N+](=O)[O-])cc1 | > 128 | > 128 |  | > 128 | > 128 | > 128 |  | > 128 | > 128 | > 128 | > 128 | > 128 | 
6 | COc1cc(/C=C/C(=O)N2CCOCC2)cc(OC)c1OC | 128 (≈ 416 µM) | > 128 | > 128 | 128 (≈ 416 µM) | 16 (≈ 52.1 µM) | 128 (≈ 416 µM) | > 128 | 128 (≈ 416 µM) | 128 (≈ 416 µM) | > 128 | 64 (≈ 208 µM) | > 128 | 
7 | CCN(CC)C(=O)/C=C/c1ccc(OC)c(OC)c1 | 128 (≈ 486 µM) | 128 (≈ 486 µM) | > 128 | 128 (≈ 486 µM) | 64 (≈ 243 µM) | > 128 | > 128 | 128 (≈ 486 µM) | 128 (≈ 486 µM) | > 128 | > 128 | > 128 | 
8 | CCCCNC(=O)/C=C/c1ccc(C#N)cc1 | > 128 | > 128 |  | > 128 | > 128 | > 128 |  | > 128 | > 128 | > 128 | > 128 | > 128 | 
9 | CCCCNC(=O)/C=C/c1ccc(OC)c(OC)c1 | > 128 | > 128 |  | > 128 | > 128 | > 128 |  | > 128 | > 128 | > 128 | > 128 | > 128 | 
10 | CCCCCCNC(=O)/C=C/c1ccc(Cl)cc1Cl | 128 (≈ 426 µM) | > 128 | 128 (≈ 426 µM) | > 128 | > 128 | > 128 | > 128 | > 128 | > 128 | > 128 | > 128 | > 128 | > 128
11 | COc1ccc(/C=C/C(=O)n2c(C)nc3ccccc32)cc1 | > 128 | > 128 | > 128 | 128 (≈ 438 µM) | > 128 | 128 (≈ 438 µM) | 32 (≈ 109 µM) | > 128 | 128 (≈ 438 µM) | 64 (≈ 219 µM) | 128 (≈ 438 µM) | 128 (≈ 438 µM) | 
12 | CCN(CC)C(=O)/C=C/c1cc(OC)c(OC)c(OC)c1 | 128 (≈ 436 µM) | 128 (≈ 436 µM) | > 128 | 128 (≈ 436 µM) | 32 (≈ 109 µM) | > 128 | > 128 | 128 (≈ 436 µM) | 128 (≈ 436 µM) | 64 (≈ 218 µM) | 64 (≈ 218 µM) | 128 (≈ 436 µM) | 
13 | COc1ccccc1/C=C/C(=O)N1CCN(C(c2ccccc2)c2ccc(Cl)cc2)CC1 (centres undefined) | > 128 | > 128 | > 128 | > 128 | 64 (≈ 143 µM) | > 128 | > 128 | > 128 | > 128 | > 128 | > 128 | > 128 | 
14 | COc1ccccc1/C=C/C(=O)n1c(C)nc2ccccc21 | > 128 | 128 (≈ 438 µM) | 128 (≈ 438 µM) | 128 (≈ 438 µM) | > 128 | 128 (≈ 438 µM) | 16 (≈ 54.7 µM) | 128 (≈ 438 µM) | 128 (≈ 438 µM) | 64 (≈ 219 µM) | 64 (≈ 219 µM) | 128 (≈ 438 µM) | > 128
15 | O=C(/C=C/c1ccc(F)cc1)N1CCOCC1 | 128 (≈ 544 µM) | 128 (≈ 544 µM) | > 128 | 128 (≈ 544 µM) | > 128 | > 128 | > 128 | 128 (≈ 544 µM) | 128 (≈ 544 µM) | > 128 | > 128 | 128 (≈ 544 µM) | 
16 | COc1cc(/C=C/C(=O)N(C)C)cc(OC)c1OC | > 128 | 128 (≈ 482 µM) | > 128 | 128 (≈ 482 µM) | > 128 | > 128 | > 128 | 128 (≈ 482 µM) | 128 (≈ 482 µM) | > 128 | > 128 | 128 (≈ 482 µM) | 
17 | COc1ccc(/C=C/C(=O)N2CCOCC2)cc1OC | > 128 | > 128 | > 128 | 128 (≈ 462 µM) | > 128 | > 128 | > 128 | 128 (≈ 462 µM) | 128 (≈ 462 µM) | > 128 | > 128 | > 128 | 
18 | CC(C)NC(=O)/C=C/c1ccc([N+](=O)[O-])cc1 | > 128 | > 128 |  | > 128 | > 128 | > 128 |  | > 128 | > 128 | > 128 | > 128 | > 128 | 
19 | CCN(CC)C(=O)/C=C/c1ccc(Cl)cc1Cl | > 128 | > 128 | 128 (≈ 470 µM) | > 128 | 128 (≈ 470 µM) | 128 (≈ 470 µM) | 32 (≈ 118 µM) | > 128 | > 128 | > 128 | > 128 | 128 (≈ 470 µM) | 128 (≈ 470 µM)
20 | O=C(/C=C/c1ccc(Cl)cc1Cl)N1CCN(C(c2ccccc2)c2ccc(Cl)cc2)CC1 (centres undefined) | 64 (≈ 132 µM) | > 128 | > 128 | > 128 | 64 (≈ 132 µM) | > 128 | > 128 | > 128 | > 128 | > 128 | > 128 | > 128 | 
21 | O=C(/C=C/c1ccccc1Cl)N1CCN(C(c2ccccc2)c2ccc(Cl)cc2)CC1 (centres undefined) | > 128 | 128 (≈ 284 µM) | > 128 | > 128 | > 128 | > 128 | > 128 | > 128 | > 128 | > 128 | > 128 | > 128 | 
22 | CCCCNC(=O)/C=C/c1ccc([N+](=O)[O-])cc1 | > 128 | > 128 |  | > 128 | > 128 | > 128 |  | > 128 | > 128 | > 128 | > 128 | > 128 | 
23 | CCCNC(=O)/C=C/c1ccc([N+](=O)[O-])cc1 | > 128 | > 128 |  | > 128 | > 128 | > 128 |  | > 128 | > 128 | > 128 | > 128 | > 128 | 
24 | COc1cc(/C=C/C(=O)CC(=O)/C=C/c2ccc(O)c(OC)c2)ccc1O [CURCUMIN] | 16 (≈ 43.4 µM) |  | > 128 | 32 (≈ 86.9 µM) | > 128 | > 128 |  | > 128 | > 128 | > 128 | > 128 | > 128 | 
25 | C#CCNC(=O)/C=C/c1ccc(OC)c(OC)c1 | > 128 | > 128 |  | > 128 | > 128 | > 128 |  | > 128 | > 128 | > 128 | > 128 | > 128 | 
26 | O=C(O)/C=C/c1ccccc1 [CINNAMIC ACID] | > 128 | > 128 | > 128 | > 128 | > 128 | > 128 | > 128 | > 128 | > 128 | > 128 | > 128 | > 128 | 
27 | O=C(O)c1cn(C2CC2)c2cc(N3CCNCC3)c(F)cc2c1=O [CIPROFLOXACIN] | > 128 | > 128 | 8 (≈ 24.1 µM) | 8 (≈ 24.1 µM) | > 128 | 4 (≈ 12.1 µM) | > 128 | > 128 |  | 8 (≈ 24.1 µM) | 8 (≈ 24.1 µM) | 4 (≈ 12.1 µM) | > 128
